Assay results: ChEMBL document CHEMBL1140374, “2-n-Butyl-9-methyl-8-[1,2,3]triazol-2-yl-9H-purin-6-ylamine and analogues as A2A adenosine receptor antagonists. Design, synthesis, and pharmacological characterization” (J Med Chem, 2005)
One block for each compound: values may come before it.

Columns and labels:
Adenosine receptor A1 = target: T1, Adenosine receptor A1 (Homo sapiens, UniProt P30542); test: biochemical
T1 sequence (P30542 whole entry): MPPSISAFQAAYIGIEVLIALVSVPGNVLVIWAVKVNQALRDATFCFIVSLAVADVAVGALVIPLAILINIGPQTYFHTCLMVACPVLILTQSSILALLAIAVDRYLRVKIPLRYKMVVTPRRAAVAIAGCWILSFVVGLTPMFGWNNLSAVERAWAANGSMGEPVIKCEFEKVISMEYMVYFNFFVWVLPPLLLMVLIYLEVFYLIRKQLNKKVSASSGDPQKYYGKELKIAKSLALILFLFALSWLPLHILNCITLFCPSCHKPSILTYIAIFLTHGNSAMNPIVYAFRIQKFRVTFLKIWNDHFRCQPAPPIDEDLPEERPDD

[1] = target: T2, GABA-A receptor; anion channel (Homo sapiens) (UniProt P14867+P47870+P18507+P28472+P48169+Q99928+Q9UN88+P34903+O00591+O14764+Q8N1C3+P18505+P78334+P47869+P31644+Q16445); test: Percent inhibition against central Benzodiazepine receptor at 1 uM; format: protein-complex assay
Homo sapiens [2] = organism: Homo sapiens; test: Percent inhibition against P2X Purinergic receptor at 1 uM; format: tissue-based
[3] = target: Muscarinic acetylcholine receptor M3 (Homo sapiens) (UniProt P20309); test: Percent inhibition against Muscarinic acetylcholine receptor M3 at 1 uM
[4] = target: Muscarinic acetylcholine receptor M4 (Homo sapiens) (UniProt P08173); test: Percent inhibition against Muscarinic acetylcholine receptor M4 at 1 uM
[5] = target: Muscarinic acetylcholine receptor M5 (Homo sapiens) (UniProt P08912); test: Percent inhibition against Muscarinic acetylcholine receptor M5 at 1 uM
[6] = target: Sodium-dependent noradrenaline transporter (Homo sapiens) (UniProt P23975); test: Percent inhibition against Norepinephrine transporter at 1 uM nonselective
[7] = target: 5-hydroxytryptamine receptor 4 (Homo sapiens) (UniProt Q13639); test: Percent inhibition against 5-hydroxytryptamine 4 receptor at 1 uM
[8] = target: 5-hydroxytryptamine receptor 6 (Homo sapiens) (UniProt P50406); test: Percent inhibition against 5-hydroxytryptamine 6 receptor at 1 uM
[9] = target: 5-hydroxytryptamine receptor 1A (Homo sapiens) (UniProt P08908); test: Percent inhibition against 5-hydroxytryptamine 1A receptor at 1 uM
[10] = target: 5-hydroxytryptamine receptor 2A (Homo sapiens) (UniProt P28223); test: Percent inhibition against 5-hydroxytryptamine 2A receptor at 1 uM
[11] = target: 5-hydroxytryptamine receptor 2C (Homo sapiens) (UniProt P28335); test: Percent inhibition against 5-hydroxytryptamine 2C receptor at 1 uM
Adenosine receptor A3 = Adenosine receptor A3 (Homo sapiens, UniProt P0DMS8); test: Binding affinity towards human Adenosine A3 receptor expressed in HEK293 cells using 0.1 nM [3H]AB-MECA; format: cell-based
[12] = target: T3, Glutamate [NMDA] receptor (Homo sapiens) (UniProt Q05586+Q12879+Q13224+O15399+O60391+Q14957+Q8TCU5); test: Percent inhibition against PCP receptor at 1 uM; format: protein-complex assay
[13] = target: Glutamate receptor ionotropic AMPA (Homo sapiens) (UniProt P48058+P42263+P42262+P42261); test: (§1) Percent inhibition against AMPA receptor at 1 uM; format: protein-complex assay
[14] = target: T3, Glutamate [NMDA] receptor (Homo sapiens); test: Percent inhibition against NMDA receptor at a compound concentration of 1 uM; format: protein-complex assay
Homo sapiens [15] = organism: Homo sapiens; test: (§2) Percent inhibition against P2Y Purinoceptor at 1 uM
[16] = target: GABA-B receptor (Homo sapiens) (UniProt Q9UBS5+O75899); test: Percent inhibition against GABA-B receptor at 1 uM; format: protein-complex assay
[17] = target: D(3) dopamine receptor (Homo sapiens) (UniProt P35462); test: Percent inhibition against Dopamine receptor D3 at 1 uM
[18] = target: D(1B) dopamine receptor (Homo sapiens) (UniProt P21918); test: Percent inhibition against Dopamine receptor D5 at 1 uM
[19] = target: T2, GABA-A receptor; anion channel (Homo sapiens); test: (§3) Percent inhibition against GABAA receptor alpha at a compound concentration of 1 uM; format: protein-complex assay
[20] = target: Vesicular acetylcholine transporter (Homo sapiens) (UniProt Q16572); test: (§4) Percent inhibition against Acetylcholine transporter at 1 uM
[21] = target: Beta-2 adrenergic receptor (Homo sapiens) (UniProt P07550); test: Percent inhibition against Beta-2 adrenergic receptor at 1 uM
[22] = target: Equilibrative nucleoside transporter 1 (Homo sapiens) (UniProt Q99808); test: Percent inhibition against ADO transporter at 1 uM nonselective
[23] = target: Sodium-dependent dopamine transporter (Homo sapiens) (UniProt Q01959); conditions: 1 uM
[24] = target: Muscarinic acetylcholine receptor M1 (Homo sapiens) (UniProt P11229); conditions: at 1 µM
[25] = target: Muscarinic acetylcholine receptor M2 (Homo sapiens) (UniProt P08172); conditions: 1 uM
[26] = target: Opioid receptors; mu/kappa/delta (Homo sapiens) (UniProt P41145+P41143+P35372); conditions: at 1 µM
[27] = target: Serotonin 3 (5-HT3) receptor (Homo sapiens) (UniProt P46098+A5X5Y0+O95264+Q70Z44+Q8WXA8); conditions: 1 uM
[28] = target: 5-hydroxytryptamine receptor 5A (Homo sapiens) (UniProt P47898); conditions: 1 uM
[29] = target: Sodium-dependent serotonin transporter (Homo sapiens) (UniProt P31645); conditions: 1 uM
[30] = target: D(1A) dopamine receptor (Homo sapiens) (UniProt P21728); conditions: 1 uM
[31] = target: D(2) dopamine receptor (Homo sapiens) (UniProt P14416); conditions: 1 uM
[32] = target: D(4) dopamine receptor (Homo sapiens) (UniProt P21917); conditions: 1 uM
[33] = target: Beta-1 adrenergic receptor (Homo sapiens) (UniProt P08588); conditions: 1 uM
[34] = target: Adrenergic receptor alpha-1 (Homo sapiens) (UniProt P35348+P25100+P35368); conditions: 1 uM
[35] = target: Vesicular acetylcholine transporter (Homo sapiens, UniProt Q16572); test: as §4
Adenosine receptor A2b = target: T4, Adenosine receptor A2b (Homo sapiens, UniProt P29275); test: Binding affinity towards human Adenosine A2b receptor expressed in HEK293 cells using 5 nM [3H]DPCPX; format: cell-based
T4 sequence (P29275 whole entry): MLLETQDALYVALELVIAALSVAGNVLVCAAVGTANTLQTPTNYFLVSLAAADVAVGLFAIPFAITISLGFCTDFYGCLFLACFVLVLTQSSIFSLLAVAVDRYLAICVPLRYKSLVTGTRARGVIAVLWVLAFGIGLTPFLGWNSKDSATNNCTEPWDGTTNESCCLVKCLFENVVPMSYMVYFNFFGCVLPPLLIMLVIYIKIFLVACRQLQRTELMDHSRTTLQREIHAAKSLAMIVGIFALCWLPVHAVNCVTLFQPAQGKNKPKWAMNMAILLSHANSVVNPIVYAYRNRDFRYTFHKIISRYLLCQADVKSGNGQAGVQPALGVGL

Adenosine receptor A2a = Adenosine receptor A2a (Homo sapiens, UniProt P29274); test: biochemical
[36] = target: GABA-A receptor; anion channel; test: as §3; format: protein-complex assay, Homo sapiens
[37] = as §2; set-up: species or system Homo sapiens
[38] = target: Glutamate receptor ionotropic AMPA (Homo sapiens, UniProt P42261+P42262+P42263+P48058); test: as §1; format: protein-complex assay

Sequence of Adenosine receptor A2a (P29274 whole entry): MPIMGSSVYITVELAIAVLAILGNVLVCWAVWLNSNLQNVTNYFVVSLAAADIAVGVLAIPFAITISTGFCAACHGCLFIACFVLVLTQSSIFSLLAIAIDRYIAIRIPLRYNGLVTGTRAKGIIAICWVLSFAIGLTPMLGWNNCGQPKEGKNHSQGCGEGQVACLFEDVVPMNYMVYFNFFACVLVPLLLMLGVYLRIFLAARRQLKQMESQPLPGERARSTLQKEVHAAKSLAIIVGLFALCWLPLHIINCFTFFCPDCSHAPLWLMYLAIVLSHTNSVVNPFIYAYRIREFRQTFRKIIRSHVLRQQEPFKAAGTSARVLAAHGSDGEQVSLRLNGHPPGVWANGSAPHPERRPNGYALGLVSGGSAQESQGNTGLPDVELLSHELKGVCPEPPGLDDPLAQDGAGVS
Sequence of 5-hydroxytryptamine receptor 5A (Homo sapiens) (P47898 whole entry): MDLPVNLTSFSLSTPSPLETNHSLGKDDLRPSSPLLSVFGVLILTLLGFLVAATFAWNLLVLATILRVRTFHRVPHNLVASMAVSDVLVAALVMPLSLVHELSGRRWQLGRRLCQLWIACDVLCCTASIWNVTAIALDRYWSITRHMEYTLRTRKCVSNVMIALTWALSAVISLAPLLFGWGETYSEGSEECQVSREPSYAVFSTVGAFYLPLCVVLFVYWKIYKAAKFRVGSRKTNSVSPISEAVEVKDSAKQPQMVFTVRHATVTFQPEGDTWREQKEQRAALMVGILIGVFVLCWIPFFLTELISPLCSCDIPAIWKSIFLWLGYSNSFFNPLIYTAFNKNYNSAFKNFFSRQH
Sequence of Sodium-dependent serotonin transporter (Homo sapiens) (P31645 whole entry, looked up): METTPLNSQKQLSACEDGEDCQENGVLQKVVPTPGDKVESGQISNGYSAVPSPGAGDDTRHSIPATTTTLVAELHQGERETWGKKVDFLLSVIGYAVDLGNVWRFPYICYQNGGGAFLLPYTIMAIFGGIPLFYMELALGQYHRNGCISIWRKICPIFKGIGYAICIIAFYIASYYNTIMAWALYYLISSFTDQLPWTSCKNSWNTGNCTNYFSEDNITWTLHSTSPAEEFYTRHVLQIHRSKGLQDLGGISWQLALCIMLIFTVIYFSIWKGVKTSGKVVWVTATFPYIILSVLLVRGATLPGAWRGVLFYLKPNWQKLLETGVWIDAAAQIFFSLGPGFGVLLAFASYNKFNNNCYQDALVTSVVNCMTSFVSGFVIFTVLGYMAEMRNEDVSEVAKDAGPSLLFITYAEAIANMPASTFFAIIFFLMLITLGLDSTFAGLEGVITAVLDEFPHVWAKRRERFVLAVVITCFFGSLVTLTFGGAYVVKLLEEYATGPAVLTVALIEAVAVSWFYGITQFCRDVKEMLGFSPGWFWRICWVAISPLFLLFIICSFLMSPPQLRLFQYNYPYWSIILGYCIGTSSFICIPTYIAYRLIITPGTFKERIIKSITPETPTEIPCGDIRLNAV
Sequence of Beta-2 adrenergic receptor (Homo sapiens) (P07550 whole entry, looked up): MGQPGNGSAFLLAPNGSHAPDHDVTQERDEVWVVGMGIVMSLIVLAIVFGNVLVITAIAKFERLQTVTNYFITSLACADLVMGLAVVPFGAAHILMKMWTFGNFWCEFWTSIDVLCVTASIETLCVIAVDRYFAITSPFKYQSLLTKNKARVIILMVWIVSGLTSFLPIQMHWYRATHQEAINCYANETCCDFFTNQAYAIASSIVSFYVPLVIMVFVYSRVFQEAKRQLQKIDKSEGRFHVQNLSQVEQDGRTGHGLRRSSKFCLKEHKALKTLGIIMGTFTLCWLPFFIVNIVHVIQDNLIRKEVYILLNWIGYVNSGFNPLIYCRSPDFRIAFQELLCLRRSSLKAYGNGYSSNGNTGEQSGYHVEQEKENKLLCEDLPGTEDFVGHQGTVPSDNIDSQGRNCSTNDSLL
Sequence of Muscarinic acetylcholine receptor M3 (Homo sapiens) (P20309 whole entry, looked up): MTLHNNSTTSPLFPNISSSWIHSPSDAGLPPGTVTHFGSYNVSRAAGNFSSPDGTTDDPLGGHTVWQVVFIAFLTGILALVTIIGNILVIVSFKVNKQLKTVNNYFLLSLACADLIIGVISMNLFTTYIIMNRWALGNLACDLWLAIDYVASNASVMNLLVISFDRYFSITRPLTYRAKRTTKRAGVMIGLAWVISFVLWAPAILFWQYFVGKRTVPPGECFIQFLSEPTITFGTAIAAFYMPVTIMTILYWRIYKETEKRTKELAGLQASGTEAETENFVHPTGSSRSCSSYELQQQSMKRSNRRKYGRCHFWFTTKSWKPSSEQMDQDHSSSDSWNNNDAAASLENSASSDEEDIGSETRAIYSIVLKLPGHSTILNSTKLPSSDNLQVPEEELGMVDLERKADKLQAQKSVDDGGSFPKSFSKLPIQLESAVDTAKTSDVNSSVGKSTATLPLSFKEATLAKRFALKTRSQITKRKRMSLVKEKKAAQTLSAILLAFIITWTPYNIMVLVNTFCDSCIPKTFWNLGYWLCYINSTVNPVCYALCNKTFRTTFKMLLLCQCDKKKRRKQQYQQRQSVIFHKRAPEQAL
Sequence of Muscarinic acetylcholine receptor M4 (Homo sapiens) (P08173 whole entry): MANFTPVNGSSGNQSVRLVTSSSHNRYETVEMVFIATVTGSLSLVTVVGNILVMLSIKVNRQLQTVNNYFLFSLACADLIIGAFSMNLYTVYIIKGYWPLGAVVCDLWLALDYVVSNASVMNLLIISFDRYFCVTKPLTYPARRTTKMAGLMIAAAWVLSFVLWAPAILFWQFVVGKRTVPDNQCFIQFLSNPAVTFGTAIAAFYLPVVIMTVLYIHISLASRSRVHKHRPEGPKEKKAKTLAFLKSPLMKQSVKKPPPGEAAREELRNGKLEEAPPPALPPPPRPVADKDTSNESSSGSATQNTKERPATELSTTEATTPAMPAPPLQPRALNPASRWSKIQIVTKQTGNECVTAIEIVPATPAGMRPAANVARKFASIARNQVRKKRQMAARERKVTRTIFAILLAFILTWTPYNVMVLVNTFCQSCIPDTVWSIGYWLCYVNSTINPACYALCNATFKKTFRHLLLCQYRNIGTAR
Sequence of D(4) dopamine receptor (Homo sapiens) (P21917 whole entry): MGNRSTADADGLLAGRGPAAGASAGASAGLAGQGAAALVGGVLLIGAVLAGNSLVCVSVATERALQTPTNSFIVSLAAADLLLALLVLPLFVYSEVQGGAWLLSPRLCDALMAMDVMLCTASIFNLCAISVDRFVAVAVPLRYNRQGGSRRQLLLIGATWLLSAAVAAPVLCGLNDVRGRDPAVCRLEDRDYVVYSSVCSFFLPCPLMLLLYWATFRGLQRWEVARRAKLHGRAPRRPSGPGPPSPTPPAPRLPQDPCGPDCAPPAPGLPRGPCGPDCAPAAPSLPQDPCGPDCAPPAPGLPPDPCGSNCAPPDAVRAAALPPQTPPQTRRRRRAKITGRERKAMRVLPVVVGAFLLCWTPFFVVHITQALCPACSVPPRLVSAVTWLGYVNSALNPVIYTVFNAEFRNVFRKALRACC
Sequence of Muscarinic acetylcholine receptor M1 (Homo sapiens) (P11229 whole entry): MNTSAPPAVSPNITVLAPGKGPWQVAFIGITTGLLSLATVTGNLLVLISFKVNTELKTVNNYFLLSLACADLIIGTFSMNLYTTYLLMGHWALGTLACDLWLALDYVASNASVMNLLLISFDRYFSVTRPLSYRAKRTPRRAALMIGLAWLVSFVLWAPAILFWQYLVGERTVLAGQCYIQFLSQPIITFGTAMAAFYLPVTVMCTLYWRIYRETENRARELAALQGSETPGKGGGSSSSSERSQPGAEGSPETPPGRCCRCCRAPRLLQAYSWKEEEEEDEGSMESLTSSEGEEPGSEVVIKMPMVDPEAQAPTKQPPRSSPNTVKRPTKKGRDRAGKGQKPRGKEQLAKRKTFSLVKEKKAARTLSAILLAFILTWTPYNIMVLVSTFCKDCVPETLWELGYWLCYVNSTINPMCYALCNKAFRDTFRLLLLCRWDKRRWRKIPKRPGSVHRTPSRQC
Sequence of 5-hydroxytryptamine receptor 2A (Homo sapiens) (P28223 whole entry): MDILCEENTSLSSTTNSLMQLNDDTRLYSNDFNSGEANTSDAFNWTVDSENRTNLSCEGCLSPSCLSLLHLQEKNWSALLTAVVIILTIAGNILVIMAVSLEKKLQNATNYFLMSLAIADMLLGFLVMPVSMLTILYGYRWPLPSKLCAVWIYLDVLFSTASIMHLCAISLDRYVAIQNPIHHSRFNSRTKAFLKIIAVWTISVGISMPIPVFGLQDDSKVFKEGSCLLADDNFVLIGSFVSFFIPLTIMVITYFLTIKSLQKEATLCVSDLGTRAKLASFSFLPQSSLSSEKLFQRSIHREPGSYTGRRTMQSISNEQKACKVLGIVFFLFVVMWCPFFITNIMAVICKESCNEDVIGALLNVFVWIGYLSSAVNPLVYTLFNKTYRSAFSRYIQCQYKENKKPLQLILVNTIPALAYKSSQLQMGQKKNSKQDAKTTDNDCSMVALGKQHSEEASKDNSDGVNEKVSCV
Sequence of Vesicular acetylcholine transporter (Homo sapiens) (Q16572 whole entry): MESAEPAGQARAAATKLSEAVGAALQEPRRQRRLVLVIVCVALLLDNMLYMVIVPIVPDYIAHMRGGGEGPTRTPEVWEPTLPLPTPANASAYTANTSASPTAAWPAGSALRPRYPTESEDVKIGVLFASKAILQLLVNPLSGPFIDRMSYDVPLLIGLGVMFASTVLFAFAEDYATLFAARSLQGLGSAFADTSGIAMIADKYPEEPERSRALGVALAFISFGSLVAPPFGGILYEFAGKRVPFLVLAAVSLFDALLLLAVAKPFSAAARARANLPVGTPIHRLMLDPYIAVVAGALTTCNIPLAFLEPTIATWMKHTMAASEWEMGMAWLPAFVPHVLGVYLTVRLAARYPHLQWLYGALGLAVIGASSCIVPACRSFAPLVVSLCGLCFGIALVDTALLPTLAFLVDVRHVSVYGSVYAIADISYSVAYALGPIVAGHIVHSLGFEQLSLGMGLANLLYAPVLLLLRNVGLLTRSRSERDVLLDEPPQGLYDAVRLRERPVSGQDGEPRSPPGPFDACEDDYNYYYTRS
Sequence of Vesicular acetylcholine transporter (Q16572 whole entry): as above

SMILES: CCCCCc1nc(N)c2nc(-n3nccn3)n(C)c2n1
inhibition [1]: < 10%
inhibition (Homo sapiens [2]): < 10%
inhibition [3]: < 10%
inhibition [4]: < 10%
inhibition [5]: < 10%
inhibition [6]: < 10%
inhibition [7]: < 10%
inhibition [8]: < 10%
inhibition [9]: < 10%
inhibition [10]: < 10%
inhibition [11]: < 10%
Ki (Adenosine receptor A3): 760 nM
inhibition [12]: < 10%
inhibition [13]: < 10%
inhibition [14]: < 10%
inhibition (Homo sapiens [15]): < 10%
inhibition [16]: < 10%
inhibition [17]: < 10%
inhibition [18]: < 10%
inhibition [19]: < 10%
inhibition [20]: < 10%
inhibition [21]: < 10%
inhibition [22]: 34%
inhibition [23]: < 10%
inhibition [24]: < 10%
inhibition [25]: < 10%
inhibition [26]: < 10%
inhibition [27]: < 10%
inhibition [28]: < 10%
inhibition [29]: < 10%
inhibition [30]: < 10%
inhibition [31]: < 10%
inhibition [32]: < 10%
inhibition [33]: < 10%
inhibition [34]: < 10%

SMILES: C[N+]1(C)CCOC(O)(c2ccc(-c3ccc(C4(O)C[N+](C)(C)CCO4)cc3)cc2)C1 (centres undefined)
IC50 [35]: 12 nM

SMILES: NCc1cc(=O)[nH]o1 [MUSCIMOL]
IC50 [36]: 16 nM

SMILES: Cc1nc(N)c2nc(-n3nccn3)n(C)c2n1
Ki (Adenosine receptor A1): 10.4 nM

SMILES: Cn1c(-n2nccn2)nc2c(N)nccc21
Ki (Adenosine receptor A2b): 518 nM
Ki (Adenosine receptor A1): 1060 nM
Ki (Adenosine receptor A2a): 51.6 nM

SMILES: CC(C)c1nc(N)c2nc(-n3nccn3)n(C)c2n1
Ki (Adenosine receptor A1): 2270 nM
Ki (Adenosine receptor A2a): 481 nM

SMILES: Nc1ncnc2c1ncn2[C@@H]1O[C@H](COP(=O)(O)CP(=O)(O)OP(=O)(O)O)[C@@H](O)[C@H]1O [DIPHOSPHOMETHYLPHOSPHONIC ACID ADENOSYL ESTER]
inhibition [37]: 14%

SMILES: Nc1ncnc2c1ncn2[C@H]1C[C@H](O)[C@@H](COP(O)(=S)OP(=O)(O)OP(=O)(O)O)O1 (some centres undefined)
inhibition [37]: 22%

SMILES: Cc1cc2c(nc(-n3nccn3)n2C)c(N)n1
Ki (Adenosine receptor A2b): 140 nM
Ki (Adenosine receptor A1): 340 nM
Ki (Adenosine receptor A2a): 120 nM

SMILES: CCCCc1nc(N)c2nc(-n3nccn3)n(C)c2n1 [ST1535]
inhibition [1]: < 10%
inhibition (Homo sapiens [2]): < 10%
inhibition [3]: < 10%
inhibition [4]: < 10%
inhibition [5]: < 10%
inhibition [6]: < 10%
inhibition [7]: < 10%
inhibition [8]: < 10%
inhibition [9]: < 10%
inhibition [10]: < 10%
inhibition [11]: < 10%
Ki (Adenosine receptor A3): > 1000 nM
inhibition [12]: < 10%
inhibition [13]: < 10%
inhibition [14]: < 10%
inhibition (Homo sapiens [15]): < 10%
inhibition [16]: < 10%
inhibition [17]: < 10%
inhibition [18]: < 10%
inhibition [19]: < 10%
inhibition [20]: < 10%
Ki (Adenosine receptor A2b): 352 nM
inhibition [21]: < 10%
inhibition [22]: 24%
inhibition [23]: < 10%
inhibition [24]: < 10%
inhibition [25]: < 10%
inhibition [26]: < 10%
inhibition [27]: < 10%
inhibition [28]: < 10%
inhibition [29]: < 10%
inhibition [30]: < 10%
inhibition [31]: < 10%
inhibition [32]: < 10%
inhibition [33]: < 10%
inhibition [34]: < 10%
Ki (Adenosine receptor A1): 71.8 nM
Ki (Adenosine receptor A2a): 6.6 nM

Next, values leading:

Ki (Adenosine receptor A1): > 1000 nM
SMILES: CCn1c(=O)c2c(nc(/C=C/c3ccc(OC)c(OC)c3)n2C)n(CC)c1=O [ISTRADEFYLLINE]

Ki (Adenosine receptor A2b): 18 nM
Ki (Adenosine receptor A1): 266 nM
Ki (Adenosine receptor A2a): 83.7 nM
SMILES: CCCc1nc(N)c2nc(-n3nccn3)n(C)c2n1

Ki (Adenosine receptor A1): > 100000 nM
Ki (Adenosine receptor A2a): 935 nM
SMILES: O=c1nc2[nH]c3ccccc3nc-2c(=O)[nH]1 [ALLOXAZINE]

Ki (Adenosine receptor A1): 0.4 nM
SMILES: Cn1c(-n2nccn2)nc2c(N)ncnc21

IC50 [38]: 967 nM
SMILES: O=C(O)[C@@H]1C[C@H](CP(=O)(O)O)CCN1 [SELFOTEL]
